Test [1] has as its system mature female rats (eight months old). Put plainly: Bone formation-promoting effect in mature rats. As to conditions: No. 1 oral 1, 10 or 100 mg/kg·day, alendronate 300 μg/kg subcutaneous, 20 weeks, vs control group. The test is classed as in vivo, rat. As to the method: Synthetic peptide No. 1 was administered to mature female rats (eight months old, ten rats in each group) by oral gavage using a gastric tube once a day for 20 weeks. The dose of the synthetic peptide was 1, 10 or 100 mg/kg·day.

The subject of test [2] is mouse osteoblast-like cell line MC3T3-E1 Subclone-4. Briefly: Osteoblast growth-promoting activity (cell counting method). The test is classed as cell-based. Particulars: synthetic peptides at 2.5, 5 or 10 μg/mL; 72 hours; relative to PBS (−) group taken as 100; FIGS. 9 to 12. As to the method:
A mouse osteoblast-like cell line MC3T3-E1 Subclone-4 (ATCC No. CRL-2593) was cultured in α-MEM medium supplemented with 10% FBS at 5% CO2 and 95% air at 37° C. until confluent. The cells were collected by trypsinization. The collected cells were suspended at 1×10^4 cells/mL in fresh α-MEM medium. One mL of the cell suspension was seeded in each well of a 24-well plate, and precultured at 5% CO2 and 95% air at 37° C. On the next day, the medium was replaced with medium prepared by well mixing 50 μL of a sample or PBS (−) with 950 μL of fresh α-MEM medium supplemented with CaCl2 to a Ca concentration of 500 μg/mL. The cells were further cultured for 72 hours. The growth activity of osteoblasts was measured by the cell counting method. The activity of the sample for promoting the growth of osteoblasts was expressed in terms of the relative value, with the growth rate in the PBS (−) group taken as 100. Osteoblast growth-promoting activity was determined for the synthetic peptides in the same manner as in Example 1. The synthetic peptides were added at 2.5, 5 or 10 μg/mL per well. As a control, PBS (−) was added. The osteoblast growth-promoting activity was expressed in terms of the relative value, with the growth rate in the PBS (−) group taken as 100.

For test [3], the system named is mouse-derived chondrogenic cell line ATDC5. Put plainly: Chondrocyte growth-promoting activity (Cell Counting Kit-8). The test is classed as cell-based. As to conditions: 10 nmol/mL; 72 hours; relative to control taken as 100%; FIG. 14. Here is the method:
This study was performed using mouse-derived chondrogenic cell line ATDC5 (RIKEN BANK, RBC0565). ATDC5 cells in the logarithmic growth phase were suspended at 3×10^4 cells/mL in Eagle MEM medium supplemented with 5% FCS (fetal calf serum), and 100 μL of the cell suspension was seeded in each well of a 96-well plate and precultured at 5% CO2 and 95% air at 37° C. On the next day, the medium in each well was removed, and medium containing the synthetic peptide (No. 1 or No. 6) at 10 nmol/mL was added. The cells were cultured for 72 hours. As a control, medium without a synthetic peptide was added. The reaction solution ([…]) of Cell Counting Kit-8 (Dojindo Laboratories) was added to each well. The plate was incubated for 3 hours, and the absorbance at 450 nm was measured with a microplate reader. The activity of the synthetic peptides for promoting the growth of chondrocytes was expressed in terms of the relative value, with the absorbance (growth rate) in the control group taken as 100%.

Test [4] relates to mouse-derived cell line ATDC5. Put plainly: Hyaluronic acid production-promoting activity (ELISA of culture supernatant). It is filed as cell-based. As to conditions: 10 nmol/mL; supernatant after 48 hours of culture; FIG. 15. Here is the method: This study was performed using the mouse-derived cell line ATDC5 as used in Example 4. ATDC5 cells in the logarithmic growth phase were seeded at 2×10^4 cells/mL per well in a 24-well plate containing DMEM/F-12 (1:1) medium supplemented with 5% FCS (fetal calf serum), 10 μg/mL transferrin and 3×10^−8 M sodium selenite. The cells were precultured at 5% CO2 and 95% air at 37° C. On the next day, the medium in each well was removed, and medium containing the synthetic peptide (No. 1 or No. 6) at 10 nmol/mL was added. The cells were cultured for […]. As a control, medium without a synthetic peptide was added. After 48 hours of culture, the culture supernatants were collected, and their hyaluronic acid concentrations were measured using QnE Hyaluronic Acid ELISA Assay (Biotech Trading Partners). The concentrations of hyaluronic acid in the culture supernatants of the synthetic peptide addition group were calculated by subtracting the absorbance of the background from the absorbance of the supernatants, and fitting the resulting values to the reference curve prepared using the standard.

The test system of test [5] is Crlj:W1 male rats at four weeks old. Put plainly: Mineral apposition rate in secondary cancellous bone, 7-day oral administration. As to conditions: No. 1 oral 1, 10 or 100 mg/kg-day, hGH 500 μg/kg·day subcutaneous; seven days; FIG. 26. The test is classed as in vivo, rat. Here is the method:
One of the synthetic peptides (No. 1) or water for injection (control) was administered to Crlj:W1 male rats at four weeks old by oral gavage using a gastric tube once a day for seven days (n=10 in each group). The dose of the synthetic peptide was 1, 10 or 100 mg/kg-day. As a positive control, human growth hormone (hGH) (Norditropin, Standard Commodity Classification No. of Japan: 872412) was subcutaneously administered at 500 μg/kg·day once a day for seven days. As fluorescent labels for the site of bone formation, tetracycline (20 mg/kg) was subcutaneously administered on day 4 after the administration of the peptide or control, and then calcein (10 mg/kg) was subcutaneously administered on day 6 after the administration of the peptide or control. After the administration of the test sample on day 7, the rats were kept under fasting conditions. Twenty-four hours later, the rats were euthanized by bloodletting under anesthesia, and the tibiae were harvested. Non-decalcified specimens of the proximal tibiae were prepared and photographed under a fluorescent microscope (BX-53, OLYMPUS). The bone morphology was measured using a morphometry system (Histometry RT digitizer, System Supply Co., Ltd.) and an analysis software (CSS-840 cancellous bone morphometry version, System Supply Co., Ltd.). The mineral apposition rate (MAR), per day, in the secondary cancellous bone was determined by measuring the distance between the tetracycline label and the calcein label in the secondary cancellous bone, and dividing the distance by the administration interval between the fluorescent labels (two days). […] The increase in the mineral apposition rate in the secondary cancellous bone in the No. 1 administration group would have resulted from the increase in the number of osteoblasts.

For test [6] the test system is unchanged. Put plainly: Bone formation in growth cartilage and primary cancellous bone, 7-day oral administration. The test is classed as in vivo, rat. Particulars: No. 1 oral 100 mg/kg-day, hGH 500 μg/kg-day subcutaneous, seven days. Here is the method: One of the synthetic peptides (No. 1) or water for injection (control) was administered to Crlj:W1 male rats at four weeks old by oral gavage using a gastric tube once a day for seven days (n=3 in each group). The dose of the synthetic peptide (No. 1) was 100 mg/kg-day. As a positive control, human growth hormone (hGH) (Norditropin, Standard Commodity Classification No. of Japan: 872412) was subcutaneously administered at 500 μg/kg-day once a day for seven days. As fluorescent labels for the site of bone formation, tetracycline (20 mg/kg) was subcutaneously administered on day 4 after the administration of the peptide or control, and then calcein (10 mg/kg) was subcutaneously administered on day 6 after the administration of the peptide or control. After the administration of the test sample on day 7, the rats were kept under fasting conditions. Twenty-four hours later, the blood was collected. The rats were then euthanized by bloodletting under anesthesia, and the tibiae were harvested (see FIG. 16). Non-decalcified specimens of the proximal tibiae were prepared and photographed under a fluorescent microscope (BX-53, OLYMPUS). The bone morphology was measured using a morphometry system (Histometry RT digitizer, System Supply Co., Ltd.) and an analysis software (CSS-840 cancellous bone morphometry version, System Supply Co., Ltd.). The longitudinal growth rate (Lo.G.R.) in the growth cartilage, which is the increase in the height per day, was determined by measuring the distance between the tetracycline label and the calcein label, and dividing the distance by the administration interval between the fluorescent labels (two days).
The increase in the level of IGF-1, which is related to growth of the bones and muscles in a growth phase, may contribute to the bone growth-promoting effect.

The test system is the same in test [7]. Briefly: Bone formation in growth cartilage and secondary cancellous bone, 21-day oral administration. It is filed as in vivo, rat. As to conditions: No. 1 oral 100 mg/kg·day, hGH 500 μg/kg·day subcutaneous; 21 days; FIG. 21. Here is the method:
One of the synthetic peptides (No. 1) or water for injection (control) was administered to Crlj:W1 male rats at four weeks old by oral gavage using a gastric tube once a day for 21 days (n=3 in each group). The dose of the synthetic peptide was 100 mg/kg·day. As a positive control, human growth hormone (hGH) (Norditropin, Standard Commodity Classification No. of Japan: 872412) was subcutaneously administered at 500 μg/kg·day once a day for 21 days. As fluorescent labels for the site of bone formation, tetracycline (20 mg/kg) was subcutaneously administered on day 18 after the administration of the peptide or control, and then calcein (10 mg/kg) was subcutaneously administered on day 20 after the administration of the peptide or control. After the administration of the test sample on day 21, the rats were kept under fasting conditions. Twenty-four hours later, the rats were euthanized by bloodletting under anesthesia, and the tibiae were harvested (see FIG. 20). Non-decalcified specimens of the proximal tibiae were prepared and photographed under a fluorescent microscope (BX-53, OLYMPUS). The bone morphology was measured using a morphometry system (Histometry RT digitizer, System Supply Co., Ltd.) and an analysis software (CSS-840 cancellous bone morphometry version, System Supply Co., Ltd.). The longitudinal growth rate (Lo.G.R.) in the epiphyseal cartilage, which is the increase in the height per day, was determined by measuring the distance between the tetracycline label and the calcein label, and dividing the distance by the administration interval between the fluorescent labels (two days).

No end group written: not given here.

For `NCCCC(O)(P(=O)(O)O)P(=O)(O)O` [alendronate, alendronate sodium hydrate, reference compound], the “cancellous bone volume in the proximal tibial metaphysis” value in test [1] is “significantly increased”.
DESSPYE [No. 4]: the osteoblast growth-promoting activity result in test [2] was “promoted the growth of osteoblasts in a concentration-dependent manner”.
For the compound EDESSPYE [No. 5], in test [2], the osteoblast growth-promoting activity entry was “promoted the growth of osteoblasts in a concentration-dependent manner”.
On the same count and under the same terms, the same measure for Pro-Glu-Ser-Glu-Glu (PESEE) [No. 3]: “promoted the growth of osteoblasts in a concentration-dependent manner”; for VNPESEE [No. 2]: “promoted the growth of osteoblasts in a concentration-dependent manner”.
As for VNPESEEEDESSPYE [No. 6], in test [2], the osteoblast growth-promoting activity entry is listed as “promoted the growth of osteoblasts in a concentration-dependent manner”. Moreover, the chondrocyte growth-promoting activity result in test [3] is reported as “showed chondrocyte growth-promoting effect”. Also, the “hyaluronic acid production-promoting activity (hyaluronic acid concentration in culture supernatant)” value in test [4] was “showed hyaluronic acid production-promoting effect”.
With “hGH: human growth hormone (hGH) (Norditropin), positive control, subcutaneously administered [reference compound]”, the “mineral apposition rate (MAR) in the secondary cancellous bone, vs control group” value in test [5] is reported as “significant increase in the mineral apposition rate”. Also, the “serum level of insulin-like growth factor (IGF-1)” value in test [6] (ELISA, FIG. 19) is “higher than that in the control group”. For the same compound, in test [6] (FIG. 17), the “longitudinal growth rate (Lo.G.R.) in the growth cartilage, vs control group” value is listed as “significant promotion of bone growth as compared with the control group”. The “longitudinal growth rate (Lo.G.R.) in the epiphyseal cartilage, vs control group” value in test [7] is reported as “significant promotion of bone growth as compared with the control group”.
